Data reported in patent US11369654B2, “Application method of Dendrobium candidum in preparing medicine for treating hypertension” (Hangzhou Danhe Pharmaceutical CO., Ltd., priority 2017, dated 2022).
“And” between values parts separate entries of the source, which are not always exact repeats. Identical values can stand only once.

Tested on: Spontaneously Hypertensive Rats (SHR)
Experiment: Experiment 2: hypotensive effect of samples of Embodiment 1 and 2, tail artery blood pressure
Type: in vivo, rat
Conditions: for valley-peak ratio of Systolic Blood Pressure Reduction: 24 h divided by 2 h after administration
Procedure: Rats: 10 weeks old Spontaneously Hypertensive Rats (SHR), Wistar rats were used as normal controls.
Rat Blood Pressure Measurement: BP-98A Non-invasive Tail Artery Blood Pressure Meter, Japan Soft Rotation Co., Ltd.
Group therapy is described in the following description. Blood pressure and body weight are measured and grouped after one week of adaptive feeding in all rats. […] Eight rats in each group are treated for 8 weeks. Blood pressure is observed for 1 week after withdrawal.
Blood pressure measurement: The rats are preheated at 38° C. for 5-10 minutes to avoid blood flow in the tail of the rat. The blood pressure of the rats is measured three times in a waking and quiet state, and the average value of three measurement times is used as the blood pressure of the rats. Blood pressure is measured twice a week, once 2 hours after administration and once 24 hours after administration, to observe the immediate antihypertensive effect and after 24 hours antihypertensive effect (and the peak-to-valley ratio).
The valley-peak ratio calculation of depressurization amplitude: The difference of blood pressure before treatment minus 24 hours after administration is the trough of the range of blood pressure reduction, which is the lowest point before the next administration; the difference of blood pressure before treatment and 2 hours after administration is the peak value of blood pressure reduction, that is, the maximum point of blood pressure reduction after administration. Valley value of depressurization amplitude divided by peak value of depressurization amplitude is equal to valley-peak ratio of depressurization amplitude.

[1] = 24 h after administration, treatment for 5 weeks, 0.8 g/kg crude drug, amlodipine 0.5 mg/kg
[2] = 24 h after administration, treatment for 6 weeks, 0.8 g/kg crude drug, amlodipine 0.5 mg/kg
[3] = 24 h after administration, treatment for 7 weeks, 0.8 g/kg crude drug, amlodipine 0.5 mg/kg
[4] = 24 h after administration, treatment for 8 weeks, 0.8 g/kg crude drug, amlodipine 0.5 mg/kg
[5] = 24 h after administration, treatment for 8 weeks, 0.8 g/kg crude drug, amlodipine 0.5 mg/kg, listed as amlodipine
[6] = stopping for 1 week after 8 weeks of treatment
[7] = stopping for 3 days after 8 weeks of treatment
[8] = stopping for 3 days after 8 weeks of treatment, listed as amlodipine
[9] = treatment for 1 week, 0.8 g/kg crude drug, amlodipine 0.5 mg/kg
[10] = treatment for 2 weeks, 0.8 g/kg crude drug, amlodipine 0.5 mg/kg
[11] = treatment for 3 weeks, 0.8 g/kg crude drug, amlodipine 0.5 mg/kg
[12] = treatment for 4 weeks, 0.8 g/kg crude drug, amlodipine 0.5 mg/kg
[13] = treatment for 5 weeks, 0.8 g/kg crude drug, amlodipine 0.5 mg/kg
[14] = treatment for 6 weeks, 0.8 g/kg crude drug, amlodipine 0.5 mg/kg
[15] = treatment for 7 weeks, 0.8 g/kg crude drug, amlodipine 0.5 mg/kg
[16] = treatment for 8 weeks, 0.8 g/kg crude drug, amlodipine 0.5 mg/kg

Question: What does the source list for `CCOC(=O)C1=C(COCCN)NC(C)=C(C(=O)OC)C1c1ccccc1Cl` (stereo not shown) [Amlodipine, amlodipine besylate]?
Answer: systolic blood pressure (24 h after administration, treatment for 4 weeks, 0.8 g/kg crude drug, amlodipine 0.5 mg/kg): 209.0 mmHg; diastolic blood pressure [1]: 161.8 mmHg; systolic blood pressure [1]: 207.8 mmHg; diastolic blood pressure [2]: 165.0 mmHg; systolic blood pressure [2]: 202.8 mmHg; diastolic blood pressure [3]: 156.3 mmHg; systolic blood pressure [3]: 199.5 mmHg; diastolic blood pressure [4]: 154.3 mmHg; systolic blood pressure [4]: 202.0 mmHg; diastolic blood pressure [5]: 154.3±5.50 mmHg; systolic blood pressure [5]: 202.0±5.88 mmHg; diastolic blood pressure (before treatment): 156.0 mmHg; systolic blood pressure (before treatment): 209.8 mmHg and 209.8 ± 8.92 mmHg; diastolic blood pressure [6]: 155.4 mmHg; systolic blood pressure [6]: 214.2 mmHg; diastolic blood pressure [7]: 158.7 mmHg; systolic blood pressure [7]: 205.4 mmHg; diastolic blood pressure [8]: 158.7±2.79 mmHg; systolic blood pressure [8]: 205.4±1.85 mmHg; 2-hour hypotensive amplitude (peak of systolic blood pressure reduction) [9]: 34.7 mmHg; 24-hour hypotensive amplitude (trough of systolic blood pressure reduction) [9]: 9.1 mmHg; valley-peak ratio of Systolic Blood Pressure Reduction [9]: 0.26; 2-hour hypotensive amplitude (peak of systolic blood pressure reduction) [10]: 31.5 mmHg; 24-hour hypotensive amplitude (trough of systolic blood pressure reduction) [10]: 7.2 mmHg; valley-peak ratio of Systolic Blood Pressure Reduction [10]: 0.23; 2-hour hypotensive amplitude (peak of systolic blood pressure reduction) [11]: 32.0 mmHg; 24-hour hypotensive amplitude (trough of systolic blood pressure reduction) [11]: 8.2 mmHg; valley-peak ratio of Systolic Blood Pressure Reduction [11]: 0.26; 2-hour hypotensive amplitude (peak of systolic blood pressure reduction) [12]: 34.1 mmHg; 24-hour hypotensive amplitude (trough of systolic blood pressure reduction) [12]: 0.8 mmHg; valley-peak ratio of Systolic Blood Pressure Reduction [12]: 0.02; 2-hour hypotensive amplitude (peak of systolic blood pressure reduction) [13]: 35.5 mmHg; 24-hour hypotensive amplitude (trough of systolic blood pressure reduction) [13]: 2.0 mmHg; valley-peak ratio of Systolic Blood Pressure Reduction [13]: 0.06; 2-hour hypotensive amplitude (peak of systolic blood pressure reduction) [14]: 31.0 mmHg; 24-hour hypotensive amplitude (trough of systolic blood pressure reduction) [14]: 7.0 mmHg; valley-peak ratio of Systolic Blood Pressure Reduction [14]: 0.23; 2-hour hypotensive amplitude (peak of systolic blood pressure reduction) [15]: 34.0 mmHg; 24-hour hypotensive amplitude (trough of systolic blood pressure reduction) [15]: 10.3 mmHg; valley-peak ratio of Systolic Blood Pressure Reduction [15]: 0.30; 2-hour hypotensive amplitude (peak of systolic blood pressure reduction) [16]: 31.7 mmHg; 24-hour hypotensive amplitude (trough of systolic blood pressure reduction) [16]: 7.8 mmHg; valley-peak ratio of Systolic Blood Pressure Reduction [16]: 0.25
